Experimental data: patent US7989462B2, “4-arylamin-or-4-heteroarylamino-quinazolines and analogs as activators of caspases and inducers of apoptosis and the use thereof” (Myrexis, Inc., priority 2003, dated 2011)

Test system: T-47D
Assay: Caspase cascade activation in T-47D solid tumor cells (fluorogenic N-(Ac-DEVD)-N'-ethoxycarbonyl-R110 substrate)
Type: cell-based, Human
Settings: T-47D (24 hr); for EC50: Homo sapiens, T47D, read-out: Caspase Potency EC50; for Caspase Activity Ratio: ratio of net RFU of test compound to that of control samples
Protocol: Human breast cancer cell lines T-47D and DLD-1 were grown according to media component mixtures designated by American Type Culture Collection+10% FCS (Invitrogen Corporation), in a 5% CO2-95% humidity incubator at 37° C. T-47D and DLD-1 cells were maintained at a cell density between 50 and 80% confluency at a cell density of 0.1 to 0.6×10^6 cells/mL. Cells were harvested at 600×g and resuspended at 0.65×10^6 cells/mL into appropriate media+10% FCS. An aliquot of 22.5 μL of cells was added to a well of a 384-well microtiter plate containing 2.5 μL of a 10% DMSO in RPMI-1640 media solution containing 0.16 to 100 μM of (2-chloro-quinazolin-4-yl)-(4-dimethylaminophenyl)-methylamine or other test compound (0.016 to 10 μM final). An aliquot of 22.5 μL of cells was added to a well of a 384-well microtiter plate containing 2.5 μL of a 10% DMSO in RPMI-1640 media solution without test compound as the control sample. […] After incubation, the samples were removed from the incubator and 25 μL of a solution containing 14 μM of N-(Ac-DEVD)-N′-ethoxycarbonyl-R110 fluorogenic substrate (Cytovia, Inc.; WO99/18856), 20% sucrose (Sigma), 20 mM DTT (Sigma), 200 mM NaCl (Sigma), 40 mM Na PIPES buffer pH 7.2 (Sigma), and 500 μg/mL lysolecithin (Calbiochem) was added. The samples were mixed by agitation and incubated at room temperature. Using a fluorescent plate reader (Model SPECTRAfluor Plus, Tecan), an initial reading (T=0) was made approximately 1-2 min after addition of the substrate solution, employing excitation at 485 nm and emission at 530 nm, to determine the background fluorescence of the control sample. After the 3 h incubation, the samples were read for fluorescence as above (T=3 h).
The Relative Fluorescence Unit values (RFU) were used to calculate the sample readings as follows: RFU(T=3h)−Control RFU(T=0)=Net RFU(T=3h)
The activity of caspase cascade activation was determined by the ratio of the net RFU value for (2-chloro-quinazolin-4-yl)-(4-dimethylaminophenyl)-methylamine or other test compounds to that of control samples. The EC50 (nM) was determined by a sigmoidal dose-response calculation (Prism 3.0, GraphPad Software Inc.).

| SMILES | EC50 | Caspase Activity Ratio |
| --- | --- | --- |
| CC(=O)Nc1ccc(N(C)c2nc(C)nc3ccccc23)cc1 [Example 1, (4-Acetamido-phenyl)-(2-methyl-quinazolin-4-yl)-methylamine] | 47 nM | 8.1 |
| COc1c(Br)cc(N(C)c2nc(C)nc3cc([N+](=O)[O-])ccc23)cc1Br [Example 2, (3,5-Dibromo-4-methoxyphenyl)-(2-methyl-7-nitroquinazolin-4-yl)-methylamine] | > 10000 nM | 1.1 |
| COc1ccc(N(C)c2nc(NCc3ccccc3)nc3ccccc23)cc1 [Example 3, (2-Benzylamino-quinazolin-4-yl)-(4-methoxyphenyl)-methylamine] | 75 nM | 8.2 |
| COC(=O)Nc1ccc(N(C)c2nc(C)nc3ccccc23)cc1 [Example 4, (2-Methyl-quinazolin-4-yl)-(4-methoxycarbonylamino-phenyl)-methylamine] | 73 nM | 8.5 |
| Cc1nc(N(C)c2ccc(NC(N)=O)cc2)c2ccccc2n1 [Example 5, (2-Methyl-quinazolin-4-yl)-(4-ureido-phenyl)-methylamine] | 32 nM | 9.3 |
| CC(=O)N(C)c1ccc(N(C)c2nc(C)nc3ccccc23)cc1 [Example 6, (2-Methyl-quinazolin-4-yl)-(N-methyl-4-acetamido-phenyl)-methylamine] | 210 nM | 9.2 |
| CNc1ccc(N(C)c2nc(C)nc3ccccc23)cc1 [Example 7, (2-Methyl-quinazolin-4-yl)-(4-methylamino-phenyl)-methylamine] | 18 nM | 3.4 |
| COC(=O)N(C)c1ccc(N(C)c2nc(C)nc3ccccc23)cc1 [Example 8, (2-Methyl-quinazolin-4-yl)-[4-(N-methyl-methoxycarbonylamino)-phenyl]-methylamine] | 558 nM | 8.0 |
| COc1ccc(CNc2nc(N(C)c3ccc(OC)cc3)c3ccccc3n2)cc1 [Example 9] | 258 nM | 5.6 |
| Cc1nc(N(C)c2ccc(N(C)C)cc2)c2cc([N+](=O)[O-])ccc2n1 [Example 10, (2-Methyl-6-nitroquinazolin-4-yl)-(4-dimethylaminophenyl)-methylamine] | 979 nM | 2.6 |
| COc1ccc(N(C)c2nc(Cl)nc3ccc([N+](=O)[O-])cc23)cc1 [Example 11, (2-Chloro-6-nitroquinazolin-4-yl)-(4-methoxyphenyl)-methylamine] | 5080 nM | 4.0 |
| Cc1nc(N(C)c2ccc(N(C)C)cc2)c2cc(N)ccc2n1 [Example 12, (6-Amino-2-methyl-quinazolin-4-yl)-(4-dimethylaminophenyl)-methylamine] | 33 nM | 3.8 |
| CN(C)c1ccc(N(C)c2nc(Cl)nc3ccccc23)cc1 [Example 13, (2-Chloro-quinazolin-4-yl)-(4-dimethylaminophenyl)-methylamine] | 4 nM | 4.2 |
| COc1ccc(N(C)c2nc(N(C)C)nc3ccc([N+](=O)[O-])cc23)cc1 [Example 14, (2-Dimethylamino-6-nitroquinazolin-4-yl)-(4-methoxyphenyl)-methylamine] | 2360 nM | 4.2 |
| CNc1nc(N(C)c2ccc(N(C)C)cc2)c2ccccc2n1 [Example 15, (2-Methylamino-quinazolin-4-yl)-(4-dimethylaminophenyl)-methylamine] | 39 nM | 3.9 |
| CC(=O)N(C)c1nc(N(C)c2ccc(N(C)C)cc2)c2ccccc2n1 [Example 16, [2-(N-Methyl-acetamido)-quinazolin-4-yl]-(4-dimethylaminophenyl)-methylamine] | 14 nM | 2.4 |
| CNc1nc(N(C)c2ccc(OC)cc2)c2cc([N+](=O)[O-])ccc2n1 [Example 17, (2-Methylamino-6-nitroquinazolin-4-yl)-(4-methoxyphenyl)-methylamine] | 619 nM | 3.7 |
| COc1ccc(N(C)c2nc(N(C)C)nc3ccc(N)cc23)cc1 [Example 18, (6-Amino-2-dimethylamino-quinazolin-4-yl)-(4-methoxyphenyl)-methylamine] | 221 nM | 4.7 |

| SMILES | EC50 | Caspase Activity Ratio |
| --- | --- | --- |
| CNc1nc(N(C)c2ccc(OC)cc2)c2cc(N)ccc2n1 [Example 19, (6-Amino-2-methylamino-quinazolin-4-yl)-(4-methoxyphenyl)-methylamine] | 214 nM | 4.3 |
| CSc1ccc(Nc2nc(C)nc3ccccc23)cc1 [Example 20, (4-Methylthio-phenyl)-(2-methyl-quinazolin-4-yl)-amine] | > 10000 nM | 1.1 |
| CSc1ccc(N(C)c2nc(C)nc3ccccc23)cc1 [Example 21, (4-Methylthio-phenyl)-(2-methyl-quinazolin-4-yl)-methylamine] | 4 nM | 7.5 |
| Cc1nc(Nc2ccc(N(C)C)cc2)c2ccccc2n1 [Example 22, (4-Dimethylamino-phenyl)-(2-methyl-quinazolin-4-yl)-amine] | 2860 nM | 8.7 |
| Cc1nc(N(C)c2ccc3c(c2)nnn3C)c2ccccc2n1 [Example 23, (1-Methyl-1H-benzotriazol-5-yl)-(2-methyl-quinazolin-4-yl)-methylamine] | > 10000 nM | 1.1 |
| COc1ccc(Nc2nc(C)nc3ccccc23)cc1OC [Example 24, (3,4-Dimethoxy-phenyl)-(2-methyl-quinazolin-4-yl)-amine] | > 10000 nM | 1.3 |
| COc1ccc(N(C)c2nc(C)nc3ccccc23)cc1OC [Example 25, (3,4-Dimethoxy-phenyl)-(2-methyl-quinazolin-4-yl)-methylamine] | 9 nM | 10.2 |
| Cc1nc(Nc2ccc(N(C)C)nc2)c2ccccc2n1 [Example 26, (2-Dimethylamino-pyridine-5-yl)-(2-methyl-quinazolin-4-yl)-amine] | > 10000 nM | 1.3 |
| Cc1nc(N(C)c2ccc(N(C)C)nc2)c2ccccc2n1 [Example 27, (2-Dimethylamino-pyridine-5-yl)-(2-methyl-quinazolin-4-yl)-methylamine] | 14 nM | 9.0 |
| COc1ccc(N(C)c2nc(N(C)C(C)=O)nc3ccccc23)cc1 [Example 28, (4-Methoxy-phenyl)-(2-N-methylacetamido-quinazolin-4-yl)-methylamine] | 7 nM | 4.0 |
| COC(=O)N(C)c1nc(N(C)c2ccc(OC)cc2)c2ccccc2n1 [Example 29, (4-Methoxy-phenyl)-(2-N-methyl-methoxycarbonylamino-quinazolin-4-yl)-methylamine] | 34 nM | 9.6 |
| COc1ccc(N(C)c2nc(C)nc3ccc(N(C)C)cc23)cc1 [Example 30, (6-Dimethylamino-2-methyl-quinazolin-4-yl)-(4-methoxy-phenyl)-methylamine] | 382 nM | 6.4 |
| COc1ccc(N(C)c2nc(C)nc3ccc(NC(C)=O)cc23)cc1 [Example 31, (6-Acetamido-2-methyl-quinazolin-4-yl)-(4-methoxy-phenyl)-methylamine] | 796 nM | 3.2 |
| COc1ccc(N(C)c2nc(NN)nc3ccccc23)cc1 [Example 32, (2-Hydrazinyl-quinazolin-4-yl)-(4-methoxy-phenyl)-methylamine] | 68 nM | 7.4 |
| COC(=O)Nc1ccc2nc(C)nc(N(C)c3ccc(OC)cc3)c2c1 [Example 33, (6-methoxycarbonylamino-2-methyl-quinazolin-4-yl)-(4-methoxy-phenyl)-methylamine] | 293 nM | 6.7 |
| COc1ccc(Nc2nc(C)nc3ccc([N+](=O)[O-])cc23)cc1OC [Example 34, (3,4-Dimethoxy-phenyl)-(2-methyl-6-nitro-quinazolin-4-yl)-amine] | > 10000 nM | 1.1 |
| COc1ccc(Nc2ncnc3ccccc23)cc1OC [Example 35, (3,4-Dimethoxy-phenyl)-(quinazolin-4-yl)-amine] | > 10000 nM | 1.0 |
| COc1ccc(N(C)c2nc(C)nc3ccc([N+](=O)[O-])cc23)cc1OC [Example 36, (3,4-Dimethoxy-phenyl)-(2-methyl-6-nitro-quinazolin-4-yl)-methylamine] | 1870 nM | 4.0 |
